In data set [1] the test system is MCF7. The data set can be described thus: Reversal of p-glycoprotein-mediated drug resistant in human MCF7 cells grown in vinblastine-free medium assessed as ratio of IC50 for vinblastin to IC50 for vinblastin in presence of compound at 25 ug/ml after 72 hrs by SRB assay. It is filed as cell-based.
The subject of data set [2] is MCF7. The data set can be described thus: Reversal of p-glycoprotein-mediated drug resistant in vinblastine-sensitive human MCF7 cells assessed as ratio of IC50 for vinblastin to IC50 for vinblastin in presence of compound at 25 ug/ml after 72 hrs by SRB assay. In kind it is cell-based. A general note: In SRB staining, fixed cells bind dye roughly in proportion to their protein.

The subject of data set [3] is MCF7. The data set can be described thus: Reversal of p-glycoprotein-mediated drug resistant in vinblastine-resistant human MCF7 cells assessed as ratio of IC50 for vinblastin to IC50 for vinblastin in presence of compound at 25 ug/ml after 72 hrs by SRB assay. In kind it is cell-based.
The target in data set [4] is T1, ATP-dependent translocase ABCB1 (Homo sapiens, UniProt P08183). The data set can be described thus: Inhibition of p-glycoprotein in vinblastine-sensitive human MCF7 cells assessed as decrease in rhodamine 123 accumulation at 25 ug/ml after 30 mins followed by washout measured after […] by flow cytometry. In kind it is cell-based. As to conditions: mcf7, 0.5 h; call rule not given here. In general terms: A flow cytometer gives signals particle by particle.
T1 sequence (P08183 whole entry): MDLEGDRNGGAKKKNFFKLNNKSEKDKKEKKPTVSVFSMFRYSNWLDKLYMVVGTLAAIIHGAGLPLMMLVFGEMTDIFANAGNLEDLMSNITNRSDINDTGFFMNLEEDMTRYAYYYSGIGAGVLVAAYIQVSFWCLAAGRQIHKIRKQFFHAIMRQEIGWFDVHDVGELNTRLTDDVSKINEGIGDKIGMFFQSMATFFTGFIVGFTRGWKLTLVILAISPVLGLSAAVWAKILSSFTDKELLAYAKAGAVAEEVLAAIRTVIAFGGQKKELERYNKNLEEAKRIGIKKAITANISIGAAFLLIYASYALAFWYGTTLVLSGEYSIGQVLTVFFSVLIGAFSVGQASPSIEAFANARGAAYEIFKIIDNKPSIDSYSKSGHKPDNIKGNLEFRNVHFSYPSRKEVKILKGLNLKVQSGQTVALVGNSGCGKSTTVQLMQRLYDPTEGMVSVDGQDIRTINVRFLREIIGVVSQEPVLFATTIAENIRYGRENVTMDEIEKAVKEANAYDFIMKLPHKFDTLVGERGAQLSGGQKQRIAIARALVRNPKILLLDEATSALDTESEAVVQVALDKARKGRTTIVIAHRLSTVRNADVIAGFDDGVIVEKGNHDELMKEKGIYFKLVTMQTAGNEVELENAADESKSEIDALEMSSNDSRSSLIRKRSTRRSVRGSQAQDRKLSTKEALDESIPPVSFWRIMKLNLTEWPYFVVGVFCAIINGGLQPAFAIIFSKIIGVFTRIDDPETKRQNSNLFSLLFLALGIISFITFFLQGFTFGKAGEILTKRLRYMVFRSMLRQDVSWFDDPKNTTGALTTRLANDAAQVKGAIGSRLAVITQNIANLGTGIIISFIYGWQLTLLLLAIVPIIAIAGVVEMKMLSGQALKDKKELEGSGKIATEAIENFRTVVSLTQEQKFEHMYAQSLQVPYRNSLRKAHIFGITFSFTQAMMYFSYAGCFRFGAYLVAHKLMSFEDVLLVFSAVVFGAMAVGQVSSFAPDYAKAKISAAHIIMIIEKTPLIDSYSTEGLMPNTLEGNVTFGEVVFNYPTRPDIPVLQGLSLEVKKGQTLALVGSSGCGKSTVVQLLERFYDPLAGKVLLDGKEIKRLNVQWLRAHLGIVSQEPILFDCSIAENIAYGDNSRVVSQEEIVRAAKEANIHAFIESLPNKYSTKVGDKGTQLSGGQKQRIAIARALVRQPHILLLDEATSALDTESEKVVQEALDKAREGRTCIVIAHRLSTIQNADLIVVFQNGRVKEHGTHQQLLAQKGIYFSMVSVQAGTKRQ

For data set [5], the system named is MCF7. The data set can be described thus: Inhibition of p-glycoprotein expression in vinblastine-sensitive human MCF7 cells at 25 ug/ml after 24 hrs by immunofluorescence flow cytometry relative to control. In kind it is functional. As to conditions: MCF7, 24 h.
Data set [6] deals with T1, ATP-dependent translocase ABCB1. The data set can be described thus: Inhibition of p-glycoprotein in vinblastine-sensitive human MCF7 cells assessed as decrease in rhodamine 123 accumulation at 25 ug/ml after 30 mins by flow cytometry. It is filed as cell-based. As to conditions: mcf7, 0.5 h.
Data set [7] has as its system MCF7. The data set can be described thus: Cytotoxicity against vinblastine-resistant human MCF7 cells after 72 hrs by SRB assay. In kind it is functional, cell-based. As to conditions: MCF7, 72 h.
The subject of data set [8] is MCF7. The data set can be described thus: Inhibition of p-glycoprotein expression in vinblastine-sensitive human MCF7 cells at 5 ug/ml after 24 hrs by immunofluorescence flow cytometry relative to control. In kind it is functional. As to conditions: MCF7, 24 h.
Data set [9] concerns the target T1, ATP-dependent translocase ABCB1. The data set can be described thus: Inhibition of p-glycoprotein in vinblastine-sensitive human MCF7 cells assessed as decrease in rhodamine 123 accumulation at 5 ug/ml after 30 mins by flow cytometry. In kind it is cell-based. As to conditions: mcf7, 0.5 h.

Converted amounts (≈) assume the structure as drawn. Bounds are passed on as bounds.

By inhibition is commonly meant the relative decrease from the control value, in per cent. High values mean a response far below the control, low ones a response near the control. A word on the IC50: it is the concentration needed to halve the response being measured. A high value points to a need for much substance.

Consider `CCCCC[C@H]1CCCCCCCCCC(=O)O[C@H]2[C@H](O)[C@@H](CO)O[C@@H](O[C@H]3[C@H](O1)O[C@H](C)[C@H](O)[C@@H]3O)[C@@H]2O[C@@H]1O[C@@H](C)[C@H](OC(=O)[C@@H](C)CC)[C@@H](O[C@@H]2O[C@@H](C)[C@H](O)[C@@H](O)[C@H]2O)[C@H]1OC(=O)[C@@H](C)CC`, for which the Ratio IC50 is over 1590 in the data set with MCF7 [1], 47 in the data set with MCF7 [2] and over 1910 in the data set with MCF7 [3].
For `CCCCC[C@H]1CCCCCCCCCC(=O)O[C@H]2[C@H](O[C@H]3[C@H](O1)O[C@H](C)[C@H](O)[C@@H]3O)O[C@@H](C)[C@H](O[C@@H]1O[C@@H](C)[C@H](O[C@@H]3O[C@@H](C)[C@H](OC(=O)[C@@H](C)CC)[C@@H](O)[C@H]3O)[C@@H](OC(=O)[C@@H](C)CC)[C@H]1O)[C@H]2O`, in that order: over 1590, over 73.4 and over 1910.
The like results for `CCCCC[C@H]1CCCCCCCCCC(=O)O[C@H]2[C@H](O[C@H]3[C@H](O1)O[C@H](C)[C@H](O)[C@@H]3O)O[C@@H](C)[C@H](O[C@@H]1O[C@@H](C)[C@H](O[C@@H]3O[C@@H](C)[C@H](OC(=O)[C@@H](C)CC)[C@@H](O)[C@H]3O)[C@@H](O[C@@H]3O[C@H](CO)[C@@H](O)[C@H](O)[C@H]3O)[C@H]1OC(=O)[C@@H](C)CC)[C@H]2O` were, in that order, over 1590, over 73.4 and over 1910.
For `CCCCC[C@H]1CCCCCCCCCC(=O)O[C@H]2[C@H](O[C@H]3[C@H](O1)O[C@H](CO)[C@@H](O)[C@@H]3O)O[C@@H](C)[C@H](O[C@@H]1O[C@@H](C)[C@H](O[C@@H]3O[C@@H](C)[C@H](OC(=O)[C@@H](C)CC)[C@@H](O)[C@H]3O)[C@@H](O[C@@H]3O[C@@H](C)[C@H](O)[C@@H](O)[C@H]3O)[C@H]1OC(=O)[C@@H](C)CC)[C@H]2O`, in that order: over 1590, over 73.4 and over 1910.
For the compound `CCCCC[C@H]1CCCCCCCCCC(=O)O[C@H]2[C@@H](O)[C@H](O[C@H]3[C@H](O1)O[C@H](C)[C@H](O)[C@@H]3O)O[C@@H](C)[C@@H]2O[C@@H]1O[C@@H](C)[C@H](O[C@@H]2O[C@@H](C)[C@H](OC(=O)[C@@H](C)CC)[C@@H](O)[C@H]2O)[C@@H](O[C@@H]2O[C@H](CO)[C@@H](O)[C@H](O)[C@H]2O)[C@H]1OC(=O)[C@@H](C)CC` [MURUCOIDIN V], the “inhibition (INH)” value in [4] and in [6] was “Active” each time. In the data set with MCF7 [5], this compound had an inhibition at 25 µg/mL of 30%. Further, the Ratio IC50 in the data set with MCF7 [1] came out at 255; in the data set with MCF7 [2], 47; in the data set on MCF7 [3], 7.8.
Regarding `C/C=C(\C)C(=O)O[C@H]1[C@H](O)[C@@H](O)[C@H](O[C@@H]2[C@H]3OC(=O)CCCCCCCCC[C@H](CCCCC)O[C@@H]4O[C@H](C)[C@@H](O)[C@H](O)[C@H]4O[C@@H]4O[C@H](COC(=O)[C@@H](C)CC)[C@@H](O)[C@H](O)[C@H]4O[C@H](O[C@H]2C)[C@@H]3OC(=O)[C@H](C)[C@@H](C)O)O[C@@H]1C` [ORIZABIN XIV], in the data set with MCF7 [7], 1.5 µg/mL (≈ 1.34 µM) corresponded to half-maximal inhibition (IC50).
The same measure, in the same setting: for `C/C=C(\C)C(=O)O[C@H]1[C@H](O)[C@@H](O)[C@H](O[C@@H]2[C@H]3OC(=O)CCCCCCCCC[C@H](CCCCC)O[C@@H]4O[C@H](C)[C@@H](O)[C@H](O)[C@H]4O[C@@H]4O[C@H](COC(=O)C(C)C)[C@@H](O)[C@H](O)[C@H]4O[C@H](O[C@H]2C)[C@@H]3OC(=O)[C@@H](C)[C@H](C)O)O[C@@H]1C` [ORIZABIN XI] the value was 1.5 µg/mL (≈ 1.35 µM); for `C/C=C(\C)C(=O)O[C@H]1[C@H](O)[C@@H](O)[C@H](O[C@@H]2[C@H]3OC(=O)CCCCCCCCC[C@H](CCCCC)O[C@@H]4O[C@H](C)[C@@H](O)[C@H](O)[C@H]4O[C@@H]4O[C@H](COC(=O)[C@@H](C)[C@H](C)O)[C@@H](O)[C@H](O)[C@H]4O[C@H](O[C@H]2C)[C@@H]3OC(=O)[C@@H](C)CC)O[C@@H]1C` [ORIZABIN XVII], 1.5 µg/mL (≈ 1.34 µM); for `C/C=C(\C)C(=O)O[C@H]1[C@H](O)[C@@H](O)[C@H](O[C@@H]2[C@H]3OC(=O)CCCCCCCCC[C@H](CCCCC)O[C@@H]4O[C@H](C)[C@@H](O)[C@H](O)[C@H]4O[C@@H]4O[C@H](COC(=O)[C@H](C)[C@@H](C)O)[C@@H](O)[C@H](O)[C@H]4O[C@H](O[C@H]2C)[C@@H]3OC(=O)[C@@H](C)CC)O[C@@H]1C` [ORIZABIN XVI], 1.5 µg/mL (≈ 1.34 µM).
Same read-out and setting: to `CCCCC[C@H]1CCCCCCCCCC(=O)O[C@@H]2[C@@H](O[C@@H]3O[C@H](C)[C@@H](OC(=O)[C@@H](C)CC)[C@H](O)[C@H]3O)[C@H](C)O[C@@H](O[C@H]3[C@H](O[C@H]4[C@H](O1)O[C@H](C)[C@@H](O)[C@@H]4O)O[C@H](COC(=O)[C@@H](C)[C@H](C)O)[C@@H](O)[C@@H]3O)[C@@H]2OC(=O)[C@@H](C)CC` [ORIZABIN XXI] belongs 1.5 µg/mL (≈ 1.34 µM).
Same read-out and setting: for `CCCCC[C@H]1CCCCCCCCCC(=O)O[C@@H]2[C@@H](O[C@@H]3O[C@H](C)[C@@H](OC(=O)[C@@H](C)CC)[C@H](O)[C@H]3O)[C@H](C)O[C@@H](O[C@H]3[C@H](O[C@H]4[C@H](O1)O[C@H](C)[C@@H](O)[C@@H]4O)O[C@H](COC(=O)[C@H](C)[C@@H](C)O)[C@@H](O)[C@@H]3O)[C@@H]2OC(=O)[C@@H](C)CC` [ORIZABIN XX] the value was 1.5 µg/mL (≈ 1.34 µM); for `C/C=C(\C)C(=O)O[C@H]1[C@H](O)[C@@H](O)[C@H](O[C@@H]2[C@H]3OC(=O)CCCCCCCCC[C@H](CCCCC)O[C@@H]4O[C@H](C)[C@@H](O)[C@H](O)[C@H]4O[C@@H]4O[C@H](COC(=O)C(C)C)[C@@H](O)[C@H](O)[C@H]4O[C@H](O[C@H]2C)[C@@H]3OC(=O)[C@H](C)[C@@H](C)O)O[C@@H]1C` [ORIZABIN X], 1.5 µg/mL (≈ 1.35 µM).
On to `COC(=O)[C@H]1[C@H]2C[C@@H]3c4[nH]c5cc(OC)ccc5c4CCN3C[C@H]2C[C@@H](OC(=O)c2cc(OC)c(OC)c(OC)c2)[C@@H]1OC` [RESERPINE], for which, in the data set on MCF7 [8], testing at 5 µg/mL gave an inhibition of 38%. For the same compound, the “inhibition (INH)” value in [9] is recorded as “Active”.

For the origin of these results see ChEMBL document CHEMBL1949591, “Reversal of multidrug resistance by morning glory resin glycosides in human breast cancer cells” (J Nat Prod, 2012).
